Measurements: article PMC4992173, “Divergent synthesis and identification of the cellular targets of deoxyelephantopins” (Nature Communications, 2016)

Assays:
Heme oxygenase 2 (HMOX2) = target: T1, Heme oxygenase 2 (HMOX2) (Homo sapiens, UniProt P30519); experiment: In situ competitive profiling in live MCF7 cells (LFQ): HMOX2; assay type: cell-based; details: protein HMOX2, 4 h, then 10 µM 24c, n=4
T1 construct: endogenous in cells; host or cells: MCF7
Excerpt: (§1) In our efforts to determine the direct molecular targets of deoxyelephantopin we first performed a gel-based competitive in situ proteomic profiling assay[41] […] While the greater conformational flexibility of probe 24c could potentially lead to more promiscuous target engagement relatively to deoxyelephantopin, it was favoured based on the fact that an alkyne moiety appended to the rigid scaffold of deoxyelephantopin may hinder some of its interactions. MCF7 cells were pretreated with various concentrations of deoxyelephantopin for 4 h, harvested, lysed and the lysates were treated with the fluorogenic probe 24c-Cy3 (10 μM; Supplementary Fig. 10). […] Furthermore, cells were pretreated with 20 μM concentration of deoxyelephantopin or 24c and the proteomic profiles were compared (Fig. 6b, Supplementary Fig. 11). Multiple bands were detected that were equally competed by both DEP and 24c, thus again confirming that 24c can be used as an acceptable clickable analogue of deoxyelephantopin in pulldown assays. Having established the optimal labelling conditions by SDS–PAGE, we next carried out a mass spectrometry-based competitive profiling assay[42] coupled with the method of stable isotope labelling of amino acids in culture (SILAC)[43]. […]
(§2) Figure 6 Proteome-wide identification of deoxyelephantopin targets. […] Quantification was performed using label-free quantification (LFQ) method (n=4). […]

Cystatin-B (CSTB) = target: T2, Cystatin-B (CSTB) (Homo sapiens, UniProt P04080); experiment: In situ competitive profiling in live MCF7 cells (LFQ): CSTB; assay type: cell-based; details: protein CSTB, 4 h, then 10 µM 24c, n=4
T2 construct: endogenous in cells; host or cells: MCF7
T2 sequence (P04080 whole entry): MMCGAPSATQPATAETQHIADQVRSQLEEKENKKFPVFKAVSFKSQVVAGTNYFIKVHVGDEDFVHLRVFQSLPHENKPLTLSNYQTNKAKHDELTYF
Excerpt: as §1, §2

T1 sequence (P30519 whole entry): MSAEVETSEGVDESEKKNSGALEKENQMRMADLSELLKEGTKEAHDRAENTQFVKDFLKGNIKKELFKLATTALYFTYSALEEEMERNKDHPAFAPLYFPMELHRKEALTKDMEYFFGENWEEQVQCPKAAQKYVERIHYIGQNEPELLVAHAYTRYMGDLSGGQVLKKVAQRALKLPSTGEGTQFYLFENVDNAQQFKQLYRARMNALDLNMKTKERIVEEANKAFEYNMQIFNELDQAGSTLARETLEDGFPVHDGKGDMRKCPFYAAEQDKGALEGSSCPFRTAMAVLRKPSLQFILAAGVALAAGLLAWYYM

C=C(C)C(=O)O[C@H]1CC2=C[C@@H](C/C(C)=C/[C@H]3OC(=O)C(=C)[C@H]13)OC2=O [deoxyelephantopin]
LFQ ratio 20 µM Deoxyelephantopin/DMSO with 24c (Heme oxygenase 2 (HMOX2)): 0.14 | LFQ ratio 20 µM Deoxyelephantopin/DMSO with 24c (Cystatin-B (CSTB)): 0.28
